In patent US20150231190A1, “COMPOSITIONS COMPRISING SIRAITIA GROSVENORI EXTRACTS AND METHODS FOR THE TREATMENT OF INFECTION” (Cascade Estates Limited, priority 2007, published 2015):

Tests used:
[1] = test system: Bovine Viral Diarrhoea Virus (BVDV), strain NADL; experiment: Antiviral fluorometric cytoproliferation assay against BVDV in BT turbinate cells; assay type: cell-based; conditions: fluvastatin alone 0.3125 μg/mL
Experimental: The Luo Han Guo extract was tested independently at a wide range of concentrations. The extract was tested in two assays, one at 100, 50, 25, 12.5 and 6.25 μg/mL and the other at 3600, 1200, 400, 133.3 and 44.4 μg/mL.
Bos taurus (BT) turbinate cells were used as host cells for the virus. After the cells were plated and allowed to grow overnight, The extract was added and then the virus was inoculated into the cultures. The cultures were allowed to grow for 7 days and then a fluorometric cytoproliferation assay was run. The data from all replicate cultures was averaged and compared to the growth of the negative controls (no virus or extract). The extract was present during absorption and in the media for the duration of the assays. A titration was run on the virus under the assay conditions but without the extract to determine the optimal viral inoculum for the antiviral assay. A dilution of 10^−4 of the stock virus was determined to be the correct inoculum for the antiviral assays. The growth medium used was Dulbecco's Minimum Eagle's Medium and 10% filtered horse serum. […]
The inhibition index was calculated as one minus the ratio of the average fluorescent units of the positive control to the average fluorescent units of infected cultures with a particular concentration of extract (1−(average positive control+average with extract)). […]

[2] = Water solubility (stated); assay type: physicochemical
[3] = test system: HIV-1 strain IIIB; experiment: HIV-1 p24 antigen capture ELISA antiviral assay in H9 cells; assay type: cell-based; conditions: for % Positive Control (HIV-1 p24): 7 days
Text: (§1) H9 cells were used as host cells for the virus. H9 is a human T cell clone selected for high yield permissive growth of HIV-1, cloned from Hut 78, a human T cell lymphoma cell line with an inducer/helper phenotype derived from the peripheral blood of a patient with Sezary Syndrome.
The virus used was HIV-1, Strain IIIB, Catalog No 10-124-000, Lot No. 6M0008-DP.
A titration was run on the virus under the assay conditions without the experimental compounds to determine the viral inoculum for the antiviral assay, that is the lowest multiplicity of infection (MOI) that will infect all positive control cultures. The inoculum was approximately seven times the TCID50/mL of the stock virus.
1 mL cultures were plated with approximately 2.5×10^5 cells per culture. Four replicates were run for each assay condition.
The virus was absorbed onto the host cells in the presence of a reduced volume of culture medium for 2 hours. The inoculum was then washed off the cells with phosphate buffered saline. […] The growth medium used was RPMI 1640 with 10% fetal bovine serum and 50 μg/mL gentamicin.
The assay was run for 7 days and re-fed media with appropriate compound concentrations at 4 days.
The amount of virus proliferation was measured using an HIV-1 p24 antigen capture ELISA. At 7 days, supernatants were harvested and frozen. Supernatants were thawed and diluted as necessary, and the HIV-1 p24 ELISA assay was run. Excess supernatant was refrozen and held for 3 months. The HIV-1 p24 […] of replicate cultures were averaged and presented as a percentage of the positive control.
An inhibition index of zero indicated no efficacy. The closer to 1 the inhibition index was, the greater the efficacy.

[4] = test system: H9 cells; experiment: Cytotoxicity control by microscopic inspection of cells; conditions: for Cytotoxicity (Appearance of cells): no virus
Text: as §1
Cytotoxicity was judged from the microscopic inspection of the cells.

SMILES	Antiviral activity against BVDV [1]	Water solubility [2]	Concentration most effective against HIV-1 [3] [µg/mL]	Efficacy ([3]; Mogroside V 2 μg/mL)	% Positive Control (HIV-1 p24) ([3]; Mogroside V 2 μg/mL) [%]	Effectiveness at suppressing HIV-1 replication ([3]; Mogroside V 6 μg/mL) [%]	Efficacy ([3]; Mogroside V 6 μg/mL)	% Positive Control (HIV-1 p24) ([3]; Mogroside V 6 μg/mL) [%]	Efficacy ([3]; Mogroside V 12 μg/mL)	% Positive Control (HIV-1 p24) ([3]; Mogroside V 12 μg/mL) [%]	Efficacy ([3]; Mogroside V 36 μg/mL)	% Positive Control (HIV-1 p24) ([3]; Mogroside V 36 μg/mL) [%]	Efficacy ([3]; Mogroside V 100 μg/mL)	% Positive Control (HIV-1 p24) ([3]; Mogroside V 100 μg/mL) [%]	Cytotoxicity (Appearance of cells) ([4]; Mogroside V 2 μg/mL)	Cytotoxicity (Appearance of cells) ([4]; Mogroside V 6 μg/mL)	Cytotoxicity (Appearance of cells) ([4]; Mogroside V 12 μg/mL)	Cytotoxicity (Appearance of cells) ([4]; Mogroside V 36 μg/mL)	Cytotoxicity (Appearance of cells) ([4]; Mogroside V 100 μg/mL)	Cytotoxicity, as determined by microscopic inspection ([4]; entire range of concentrations used (2 to 100 μg/mL))
CC(C)n1c(/C=C/[C@H](O)C[C@H](O)CC(=O)O)c(-c2ccc(F)cc2)c2ccccc21 (racemic) [fluvastatin, 7-[3-(4-fluorophenyl)-1-(1-methylethyl)-1H-indol-2-yl]-3,5-dihydroxy-hept-6-enoic acid]	no antiviral activity	water soluble	–	–	–	–	–	–	–	–	–	–	–	–	–	–	–	–	–	–
C[C@H](CC[C@@H](O[C@@H]1O[C@H](CO[C@@H]2O[C@H](CO)[C@@H](O)[C@H](O)[C@H]2O)[C@@H](O)[C@H](O)[C@H]1O[C@@H]1O[C@H](CO)[C@@H](O)[C@H](O)[C@H]1O)C(C)(C)O)[C@H]1CC[C@@]2(C)[C@@H]3CC=C4[C@@H](CC[C@H](O[C@@H]5O[C@H](CO[C@@H]6O[C@H](CO)[C@@H](O)[C@H](O)[C@H]6O)[C@@H](O)[C@H](O)[C@H]5O)C4(C)C)[C@]3(C)[C@H](O)C[C@]12C [Mogroside V, mogroside V]	–	–	6	Partial (partially efficacious if cultures had an inhibition index between 0.20 and 0.89)	48	~80	Partial (partially efficacious if cultures had an inhibition index between 0.20 and 0.89)	21	Partial (partially efficacious if cultures had an inhibition index between 0.20 and 0.89)	34	Partial (partially efficacious if cultures had an inhibition index between 0.20 and 0.89)	59	None (as having no efficacy if cultures had an inhibition index of less than 0.20)	88	Normal	Normal	Normal	Normal	Normal	no cytotoxicity
